# In paper PMC9402538, “Rational design of a sensitivity-enhanced tracer for discovering efficient APC–Asef inhibitors” (Nature Communications, 2022):
# Positions count from the first letter of the chain named. Where a SMILES comes first, the peptide text is derived from it. The star is where a group is joined. Benzoyl(4-OMe) = COc1ccc(C(=O)*)cc1
# Assays:
# [1] = biological target: T1, APC–Asef PPI (FLAG-tagged APC (303–876), HA-tagged Asef (170–632)) (Homo sapiens, UniProt P25054); test: Exogenous Co-IP of APC–Asef in drug-treated HEK293T cell lysate; assay type: biochemical; settings: HEK293T cell lysate, 0.2, 1 and 5 μM, 2 h
# T1 construct: FLAG-tagged APC (303–876) and hemagglutinin (HA)-tagged Asef (170–632) plasmids; expressed in transfected cells; host or cells: HEK293T (lysate treated with compound)
# T1 sequence (P25054 303-876): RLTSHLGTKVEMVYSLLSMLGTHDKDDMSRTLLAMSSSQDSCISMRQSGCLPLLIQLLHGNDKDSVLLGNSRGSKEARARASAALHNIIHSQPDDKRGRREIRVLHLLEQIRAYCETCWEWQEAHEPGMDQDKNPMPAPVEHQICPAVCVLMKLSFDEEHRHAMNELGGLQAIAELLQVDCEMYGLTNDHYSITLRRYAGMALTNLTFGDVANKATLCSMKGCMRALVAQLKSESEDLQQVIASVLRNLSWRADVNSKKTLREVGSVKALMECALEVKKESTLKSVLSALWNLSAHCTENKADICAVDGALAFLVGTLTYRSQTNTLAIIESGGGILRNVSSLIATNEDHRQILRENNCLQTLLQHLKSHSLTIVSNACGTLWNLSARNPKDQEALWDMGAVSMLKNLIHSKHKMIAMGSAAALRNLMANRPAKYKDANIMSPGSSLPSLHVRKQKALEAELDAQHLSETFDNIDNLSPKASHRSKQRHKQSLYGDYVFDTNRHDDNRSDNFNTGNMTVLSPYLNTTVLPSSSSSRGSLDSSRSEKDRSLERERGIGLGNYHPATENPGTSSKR
# Description: To investigate the effect of MAI-516 on the APC–Asef PPI, we first examined whether MAI-516 could perturb the APC–Asef PPI in cell lysates. HEK293T cells were transiently transfected with FLAG-tagged APC (303–876) and hemagglutinin (HA)-tagged Asef (170–632) plasmids. The cell lysates were harvested several hours after transfection and treated with different concentrations of MAI-203 and MAI-516 for 2 h; then, they were incubated with anti-FLAG® M2 affinity gel (Sigma; A2220) for 3 h at 4 °C.
# APC W593A, N641A = biological target: T2, APC W593A, N641A (Homo sapiens, UniProt P25054, N641A/W593A); test: ITC assay, APC W593A, N641A double mutant; assay type: binding
# T2 sequence (P25054 303-739 W593A/N641A): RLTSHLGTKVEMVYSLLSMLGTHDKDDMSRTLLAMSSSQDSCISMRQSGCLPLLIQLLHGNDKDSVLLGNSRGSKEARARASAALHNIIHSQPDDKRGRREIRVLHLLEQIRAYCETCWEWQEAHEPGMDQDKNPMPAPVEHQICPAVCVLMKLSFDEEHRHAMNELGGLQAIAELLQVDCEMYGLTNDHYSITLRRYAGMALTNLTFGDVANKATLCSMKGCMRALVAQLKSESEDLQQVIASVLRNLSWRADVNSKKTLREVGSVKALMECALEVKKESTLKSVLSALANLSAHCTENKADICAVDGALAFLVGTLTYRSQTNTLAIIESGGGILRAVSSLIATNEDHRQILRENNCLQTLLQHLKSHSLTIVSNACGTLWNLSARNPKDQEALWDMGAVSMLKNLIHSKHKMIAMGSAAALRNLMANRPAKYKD
# Description: (§1) ITC experiments were performed using a MicroCal ITC200 calorimeter (Malvern Panalytical Ltd.). APC protein and peptide inhibitors were diluted with buffer containing 50 mM HEPES pH 7.5, 300 mM NaCl and 1 mM EDTA. The cells were loaded with APC proteins at 10–20 μM. All injections were performed using an initial injection of 0.2 μL followed by 19 injections of 2 μL at 100–200 μM. All measurements were carried out at 30 °C. The data were analyzed using a single-site binding model within MicroCal ITC200 analysis software to generate the stoichiometry (N), enthalpy changes (ΔH), entropy changes (ΔS), and the association constant (K) of binding. The changes in free energy (ΔG) were calculated (ΔG = ΔH-TΔS).
# APC N641A = biological target: T3, APC N641A (Homo sapiens, UniProt P25054, N641A); test: ITC assay, APC N641A mutant; assay type: binding
# T3 sequence (P25054 303-739 N641A): T2 sequence (P25054 303-739 W593A/N641A) with A291W
# Description: as §1
# APC W593A = biological target: T4, APC W593A (Homo sapiens, UniProt P25054, W593A); test: ITC assay, APC W593A mutant; assay type: binding
# T4 sequence (P25054 303-739 W593A): T2 sequence (P25054 303-739 W593A/N641A) with A339N
# Description: as §1
smiles,measurement,setting,value
COc1ccc(C(=O)N[C@@H](C)C(=O)NCC(=O)N[C@@H](CCC(=O)O)C(=O)N[C@@H](CO)C(=O)N[C@@H](CC(C)C)C(=O)N[C@@H](Cc2ccc(O)cc2)C(=O)N[C@@H](CCC(=O)O)C(N)=O)cc1 [MAI-516] ({Benzoyl(4-OMe)}-AGESLYE-NH2),effect on APC–Asef PPI (Co-IP),[1],dose-dependently attenuate the APC–Asef PPI
same,reduction of binding affinity vs APC WT,"APC W593A, N641A",200 fold
same,-TΔS,"APC W593A, N641A; 30 °C",4.9 kcal/mol
same,L/P ratio,"APC W593A, N641A; 30 °C",0.77
same,ΔG,"APC W593A, N641A; 30 °C",-8.44 kcal/mol
same,ΔH,"APC W593A, N641A; 30 °C",-13.3 kcal/mol
same,Kd,"APC W593A, N641A; ITC, 30 °C",860 nM
same,reduction of binding affinity vs APC WT,APC N641A,~2 fold
same,-TΔS,APC N641A; 30 °C,5.45 kcal/mol
same,L/P ratio,APC N641A; 30 °C,0.88
same,ΔG,APC N641A; 30 °C,-11 kcal/mol
same,Kd,"APC N641A; ITC, 30 °C",12 nM
same,reduction of binding affinity vs APC WT,APC W593A,approximately 100 fold
same,-TΔS,APC W593A; 30 °C,2.63 kcal/mol
same,L/P ratio,APC W593A; 30 °C,0.92
same,ΔG,APC W593A; 30 °C,-8.87 kcal/mol
same,ΔH,APC W593A; 30 °C,-11.5 kcal/mol
same,Kd,"APC W593A; ITC, 30 °C",400 nM
